Assay results: patent US11116710B2, “Antimicrobial compositions” (SYMRISE AG, priority 2016, dated 2021)
In brackets after ≈: the same amount, converted by molar mass.

Legend:
E. coli = assay: Preservative challenge test (European Pharmacopoeia 7.0, 5.1.3) in anionic emulsion with Dracorin CE; format: cell-based, Escherichia coli; details: pH 5.5
Procedure: (§1) The invention will be further described in the following on the basis of examples. The examples serve to illustrate the invention, without thereby restricting the scope of protection of the claims. For examples, 1 to 11 preservative challenge tests according to European Pharmacopoeia 7.0 (5.1.3. Efficacy of antimicrobial preservation) were used. For example 12, activities were determined by measuring minimum inhibitory concentrations (MIC values) according to DIN 58940. All numerical information relates to weight, unless stated otherwise.
(§2) Activity of Benzoic acid-3-hydroxypropylester (BAHP) against the microorganisms E. coli, P. aeruginosa, S. aureus, C. albicans and spores of A. brasiliensis was evaluated in an anionic emulsion with Dracorin CE as emulsifier. The pH value of the emulsion was 5.5.
(§3) Activity of Furoic acid-3-hydroxypropylester (FAHP) against the microorganisms E. coli, P. aeruginosa, S. aureus, C. albicans and spores of A. brasiliensis was evaluated in an anionic emulsion with Dracorin CE as emulsifier. The pH value of the emulsion was 5.5.
(§4) Activity of Anisic acid-3-hydroxypropylester (AAHP) against the microorganisms E. coli, P. aeruginosa, S. aureus, C. albicans and spores of A. brasiliensis was evaluated in an anionic emulsion with Dracorin CE as emulsifier. The pH value of the emulsion was 5.5.
as §2, with “Synergistic effects between” for “Activity of”, “(BAHP) and 1,2-Octanediol were determined. Activity of BAHP, 1,2-Octanediol and the combination of BAHP and 1,2-Octanediol” for “(BAHP)”

P. aeruginosa = assay: as above; format: cell-based, Pseudomonas aeruginosa; details: pH 5.5
Procedure: as §1, §2, §3, §4
as §2, with “Synergistic effects between” for “Activity of”, “(BAHP) and 1,2-Octanediol were determined. Activity of BAHP, 1,2-Octanediol and the combination of BAHP and 1,2-Octanediol” for “(BAHP)”

S. aureus = assay: as above; format: cell-based, Staphylococcus aureus; details: pH 5.5
Procedure: as §1, §2, §3, §4
as §2, with “Synergistic effects between” for “Activity of”, “(BAHP) and 1,2-Octanediol were determined. Activity of BAHP, 1,2-Octanediol and the combination of BAHP and 1,2-Octanediol” for “(BAHP)”

C. albicans = assay: as above; format: cell-based, Candida albicans; details: pH 5.5
Procedure: as §1, §2, §3, §4
as §2, with “Synergistic effects between” for “Activity of”, “(BAHP) and 1,2-Octanediol were determined. Activity of BAHP, 1,2-Octanediol and the combination of BAHP and 1,2-Octanediol” for “(BAHP)”

[1] = system: spores of A. brasiliensis; assay: as above; format: cell-based, Aspergillus brasiliensis
Procedure: as §1, §2, §3, §4
Activity of N-Methylsalicylamid (MSA) against the microorganism A. brasiliensis was evaluated in an anionic emulsion with Dracorin CE as emulsifier. The pH value of the emulsion was 5.5.
Activity of Furoic acid methylester (FAME) against the microorganism A. brasiliensis was evaluated in an anionic emulsion with Dracorin CE as emulsifier. The pH value of the emulsion was 5.5.
Activity of Salicylamide (SA) against the microorganism A. brasiliensis was evaluated in an anionic emulsion with Dracorin CE as emulsifier. The pH value of the emulsion was 5.5.
Activity of Salicylic acid hydroxyethyl ester (SAHE) against the microorganism A. brasiliensis was evaluated in an anionic emulsion with Dracorin CE as emulsifier. The pH value of the emulsion was 5.5.
Activity of Salicylic acid hydroxypropyl ester (SAHP) against the microorganism A. brasiliensis was evaluated in an anionic emulsion with Dracorin CE as emulsifier. The pH value of the emulsion was 5.5.
Activity of Benzoic acid-3-hydroxypropylester (BAHP) against spores of A. brasiliensis was evaluated in an anionic emulsion with Dracorin CE as emulsifier. The pH value of the emulsion was 7.
Activity of Anisic acid-3-hydroxypropylester (AAHP) against spores of A. brasiliensis was evaluated in an anionic emulsion with Dracorin CE as emulsifier. The pH value of the emulsion was 7. […]

Aspergillus brasiliensis = assay: Minimum inhibitory concentration (MIC) according to DIN 58940; format: cell-based; details: for MIC: Aspergillus brasiliensis, read-out: MIC values (ppm) Aspergillus brasiliensis
Procedure: as §1
(§5) The activity of Benzoic acid-3-hydroxypropylester (BAHP), Furoic acid-3-hydroxypropylester (FAHP) and Anisic acid-3-hydroxypropylester (AAHP), Salicylic acid hydroxyethyl ester (SAHE) and Salicylic acid hydroxypropyl ester (SAHP) was determined against the microorganisms Staphylococcus aureus, Candida albicans, Aspergillus brasiliensis, Pseudomonas aeruginosa and Escherichia coli. The activity of N-Methylsalicylamid (MSA), Furoic acid methylester (FAME) and Salicylamide (SA) was determined against the microorganism Aspergillus brasiliensis.

Candida albicans = assay: as above; format: cell-based; details: for MIC values (ppm) Candida aibicans: DIN 58940; for MIC: Candida albicans, read-out: MIC values (ppm) Candida aibicans
Procedure: as §1, §5

Escherichia coli = assay: as above; format: cell-based; details: for MIC: Escherichia coli, read-out: MIC values (ppm) Escherichia coli
Procedure: as §1, §5

Pseudomonas aeruginosa = assay: as above; format: cell-based; details: for MIC: Pseudomonas aeruginosa, read-out: MIC values (ppm) Pseudomonas aeruginosa
Procedure: as §1, §5

Staphylococcus aureus = assay: as above; format: cell-based; details: for MIC: Staphylococcus aureus, read-out: MIC values (ppm) Staphylococcus aureus
Procedure: as §1, §5

[2] = day 2, 0.75% in anionic emulsion
[3] = day 7, 0.75% in anionic emulsion
[4] = day 14, 0.75% in anionic emulsion
[5] = day 28, 0.75% in anionic emulsion
[6] = day 2, 1.0% in anionic emulsion
[7] = day 7, 1.0% in anionic emulsion
[8] = day 14, 1.0% in anionic emulsion
[9] = day 28, 1.0% in anionic emulsion
[10] = day 7, 1.0% in anionic emulsion, pH 5.5
[11] = day 14, 1.0% in anionic emulsion, pH 5.5
[12] = day 14, 1.0% in anionic emulsion, pH 7
[13] = day 28, 1.0% in anionic emulsion, pH 5.5
[14] = day 28, 1.0% in anionic emulsion, pH 7

| Compound | Colony counts (cfu/g formulation) (E. coli; [6]) | Colony counts (cfu/g formulation) (E. coli; [7]) | Colony counts (cfu/g formulation) (E. coli; [8]) | Colony counts (cfu/g formulation) (E. coli; [9]) | Colony counts (cfu/g formulation) (P. aeruginosa; [6]) | Colony counts (cfu/g formulation) (P. aeruginosa; [7]) | Colony counts (cfu/g formulation) (P. aeruginosa; [8]) | Colony counts (cfu/g formulation) (P. aeruginosa; [9]) | Colony counts (cfu/g formulation) (S. aureus; [6]) | Colony counts (cfu/g formulation) (S. aureus; [7]) | Colony counts (cfu/g formulation) (S. aureus; [8]) | Colony counts (cfu/g formulation) (S. aureus; [9]) | Colony counts (cfu/g formulation) (C. albicans; [8]) | Colony counts (cfu/g formulation) (C. albicans; [9]) | Colony counts (cfu/g formulation) [1, 11] [cfu/g formulation] | Colony counts (cfu/g formulation) [1, 13] [cfu/g formulation] | MIC (Aspergillus brasiliensis) [µg/mL] | MIC (Candida albicans) [µg/mL] | MIC (Escherichia coli) [µg/mL] | MIC (Pseudomonas aeruginosa) [µg/mL] | also measured |
| --- | --- | --- | --- | --- | --- | --- | --- | --- | --- | --- | --- | --- | --- | --- | --- | --- | --- | --- | --- | --- | --- |
| CCCCCCC(O)CO (stereo not shown) [1,2-Octanediol, reference compound] | – | – | – | – | – | – | – | – | – | – | – | – | – | – | – | – | – | – | – | – | Colony counts (cfu/g formulation) (E. coli; [2]): <10 cfu/g formulation; Colony counts (cfu/g formulation) (E. coli; [3]): <10 cfu/g formulation; Colony counts (cfu/g formulation) (E. coli; [4]): <10 cfu/g formulation; Colony counts (cfu/g formulation) (E. coli; [5]): <10 cfu/g formulation; Colony counts (cfu/g formulation) (P. aeruginosa; [2]): <10 cfu/g formulation; Colony counts (cfu/g formulation) (P. aeruginosa; [3]): <10 cfu/g formulation; Colony counts (cfu/g formulation) (P. aeruginosa; [4]): <10 cfu/g formulation; Colony counts (cfu/g formulation) (P. aeruginosa; [5]): <10 cfu/g formulation; Colony counts (cfu/g formulation) (S. aureus; [2]): <10 cfu/g formulation; Colony counts (cfu/g formulation) (S. aureus; [3]): <10 cfu/g formulation; Colony counts (cfu/g formulation) (S. aureus; [4]): <10 cfu/g formulation; Colony counts (cfu/g formulation) (S. aureus; [5]): <10 cfu/g formulation; Colony counts (cfu/g formulation) (C. albicans; [3]): <10 cfu/g formulation; Colony counts (cfu/g formulation) (C. albicans; [4]): <10 cfu/g formulation; Colony counts (cfu/g formulation) (C. albicans; [5]): <10 cfu/g formulation |
| COc1ccc(C(=O)OCCCO)cc1 [AAHP, Anisic acid-3-hydroxypropylester] | <10 | <10 | <10 | <10 | <10 | <10 | <10 | <10 | <10 | <10 | <10 | <10 | <10 | <10 | <10 | <10 | – | – | – | – | Colony counts (cfu/g formulation) (C. albicans; [6]): <10 cfu/g formulation; Colony counts (cfu/g formulation) (C. albicans; [7]): <10 cfu/g formulation; Colony counts (cfu/g formulation) [1, 10]: <10 cfu/g formulation; Colony counts (cfu/g formulation) ([1]; day 7, 1.0% in anionic emulsion, pH 7): <10 cfu/g formulation; Colony counts (cfu/g formulation) [1, 12]: <10 cfu/g formulation; Colony counts (cfu/g formulation) [1, 14]: <10 cfu/g formulation; MIC values (ppm) Aspergillus brasiliensis (Aspergillus brasiliensis): 1000 ppm; MIC values (ppm) Candida aibicans (Candida albicans): 2500 ppm; MIC values (ppm) Escherichia coli (Escherichia coli): 2500 ppm; MIC values (ppm) Pseudomonas aeruginosa (Pseudomonas aeruginosa): >5000 ppm; MIC values (ppm) Staphylococcus aureus (Staphylococcus aureus): 5000 ppm |
| O=C(OCCCO)c1ccccc1 [BAHP, Benzoic acid-3-hydroxypropylester] | <10 | <10 | <10 | <10 | <10 | <10 | <10 | <10 | <10 | <10 | <10 | <10 | <10 | <10 | <10 | <10 | 2500 (≈ 13.9 mM) | 2500 (≈ 13.9 mM) | 2000 (≈ 11.1 mM) | > 5000 | Colony counts (cfu/g formulation) (E. coli; [2]): <10 cfu/g formulation; Colony counts (cfu/g formulation) (E. coli; [3]): <10 cfu/g formulation; Colony counts (cfu/g formulation) (E. coli; [4]): <10 cfu/g formulation; Colony counts (cfu/g formulation) (E. coli; [5]): <10 cfu/g formulation; Colony counts (cfu/g formulation) (P. aeruginosa; [2]): <10 cfu/g formulation; Colony counts (cfu/g formulation) (P. aeruginosa; [3]): <10 cfu/g formulation; Colony counts (cfu/g formulation) (P. aeruginosa; [4]): <10 cfu/g formulation; Colony counts (cfu/g formulation) (P. aeruginosa; [5]): <10 cfu/g formulation; Colony counts (cfu/g formulation) (S. aureus; [3]): <10 cfu/g formulation; Colony counts (cfu/g formulation) (S. aureus; [4]): <10 cfu/g formulation; Colony counts (cfu/g formulation) (S. aureus; [5]): <10 cfu/g formulation; Colony counts (cfu/g formulation) (C. albicans; [3]): <10 cfu/g formulation; Colony counts (cfu/g formulation) (C. albicans; [7]): <10 cfu/g formulation; Colony counts (cfu/g formulation) (C. albicans; [4]): <10 cfu/g formulation; Colony counts (cfu/g formulation) (C. albicans; [5]): <10 cfu/g formulation; Colony counts (cfu/g formulation) [1, 12]: <10 cfu/g formulation; Colony counts (cfu/g formulation) [1, 14]: <10 cfu/g formulation; MIC (Staphylococcus aureus): 5000 µg/mL (≈ 27.7 mM) |
| O=C(OCCCO)c1ccco1 [FAHP, Furoic acid-3-hydroxypropylester] | <10 | <10 | <10 | <10 | <10 | <10 | <10 | <10 | <10 | <10 | <10 | <10 | <10 | <10 | – | – | – | – | – | – | MIC values (ppm) Aspergillus brasiliensis (Aspergillus brasiliensis): 5000 ppm; MIC values (ppm) Candida aibicans (Candida albicans): >5000 ppm; MIC values (ppm) Escherichia coli (Escherichia coli): >5000 ppm; MIC values (ppm) Pseudomonas aeruginosa (Pseudomonas aeruginosa): >5000 ppm; MIC values (ppm) Staphylococcus aureus (Staphylococcus aureus): >5000 ppm |
| COC(=O)c1ccco1 [FAME, Furoic acid methylester] | – | – | – | – | – | – | – | – | – | – | – | – | – | – | – | <10 | > 1000 | – | – | – | – |
| CNC(=O)c1ccccc1O [MSA, N-Methylsalicylamid] | – | – | – | – | – | – | – | – | – | – | – | – | – | – | <10 | <10 | 1000 (≈ 6.62 mM) | – | – | – | Colony counts (cfu/g formulation) [1, 10]: <10 cfu/g formulation |
| NC(=O)c1ccccc1O [SA, Salicylamide] | – | – | – | – | – | – | – | – | – | – | – | – | – | – | 2.0E+03 | <10 | 2500 (≈ 18.2 mM) | – | – | – | – |
| O=C(OCCO)c1ccccc1O [SAHE, Salicylic acid hydroxyethyl ester] | – | – | – | – | – | – | – | – | – | – | – | – | – | – | – | – | 2500 (≈ 13.7 mM) | 2500 (≈ 13.7 mM) | 2000 (≈ 11 mM) | > 1000 | MIC (Staphylococcus aureus): > 1000 µg/mL |
| O=C(OCCCO)c1ccccc1O [SAHP, Salicylic acid hydroxypropyl ester] | – | – | – | – | – | – | – | – | – | – | – | – | – | – | – | – | 1000 (≈ 5.1 mM) | 2500 (≈ 12.7 mM) | 2500 (≈ 12.7 mM) | > 1000 | MIC (Staphylococcus aureus): 1000 µg/mL (≈ 5.1 mM) |
